From ChEMBL document CHEMBL4368907 (J Med Chem, 2019) come the findings set out here.

Data set [1] addresses T1, Cholecystokinin receptor type A (Homo sapiens, UniProt P32238).
T1 sequence (P32238 whole entry): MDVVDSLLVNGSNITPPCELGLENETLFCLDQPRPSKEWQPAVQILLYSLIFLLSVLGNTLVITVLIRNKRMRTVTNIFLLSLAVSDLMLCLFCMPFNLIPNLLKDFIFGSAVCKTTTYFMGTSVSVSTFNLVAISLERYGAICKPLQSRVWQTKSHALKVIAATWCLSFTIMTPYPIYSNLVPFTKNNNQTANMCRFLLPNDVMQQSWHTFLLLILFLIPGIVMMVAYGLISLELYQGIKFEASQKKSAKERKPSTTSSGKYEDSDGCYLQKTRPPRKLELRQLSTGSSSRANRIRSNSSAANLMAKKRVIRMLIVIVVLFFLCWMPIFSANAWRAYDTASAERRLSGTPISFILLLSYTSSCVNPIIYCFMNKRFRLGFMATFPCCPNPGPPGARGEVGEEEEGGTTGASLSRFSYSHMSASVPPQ
In words: Displacement of [125I]-CCK-8 from human CCK1R expressed in human 1321N1 cell membranes after 2 hrs by SPA assay.

Data set [2] is described as follows: Terminal half life in Ellegaard Gottingen minipig at 5 nmol/kg, iv by LC-MS/MS analysis. The data set is classed as ADME, organism-based, Sus scrofa. As to conditions: pig, in vivo, read-out: beta t1/2 (converted).
In data set [3] the target is T2, Gastrin/cholecystokinin type B receptor (Homo sapiens, UniProt P32239).
T2 sequence (P32239 whole entry): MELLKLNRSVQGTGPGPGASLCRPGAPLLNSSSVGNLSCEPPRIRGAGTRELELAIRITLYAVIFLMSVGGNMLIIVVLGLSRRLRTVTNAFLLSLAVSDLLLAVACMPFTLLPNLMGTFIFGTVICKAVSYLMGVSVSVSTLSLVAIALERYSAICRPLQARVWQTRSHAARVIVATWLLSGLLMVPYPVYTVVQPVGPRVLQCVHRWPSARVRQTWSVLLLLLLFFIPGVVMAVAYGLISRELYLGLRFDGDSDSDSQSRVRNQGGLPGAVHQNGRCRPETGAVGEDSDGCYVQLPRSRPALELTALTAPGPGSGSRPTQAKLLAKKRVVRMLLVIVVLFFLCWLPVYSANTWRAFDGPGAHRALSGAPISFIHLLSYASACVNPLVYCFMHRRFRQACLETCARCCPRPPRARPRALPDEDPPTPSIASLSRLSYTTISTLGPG
In words: Agonist activity at human CCK2R expressed in human 1321N1 cells assessed as IP1 accumulation after 1 hr by HTRF assay. The data set is classed as functional, cell-based.

In data set [4] the target is T1, Cholecystokinin receptor type A. In words: Agonist activity at human CCK1R expressed in human 1321N1 cells assessed as IP1 accumulation after 1 hr by HTRF assay. The data set is classed as functional, cell-based.
Data set [5] addresses T2, Gastrin/cholecystokinin type B receptor. In words: Displacement of [125I]-CCK-8 from human CCK2R expressed in human 1321N1 cell membranes after 2 hrs by SPA assay.

Numbered stars: 1 amine (or outer) side, 2 acyl side, 3 side chain; on linkers, the order of the positions; unused ones are H or OH. Square brackets hold non-standard residues; d marks the D form. Side chains are listed from the residue outwards. Peptide text beside a SMILES is read from it. * marks the point of attachment. Phenylacetyl(4-OSO3H) = O=C(Cc1ccc(OS(=O)(=O)O)cc1)*; sY = N[C@@H](Cc1ccc(OS(=O)(=O)O)cc1)C(=O)O; C18 diacid = O=C(O)CCCCCCCCCCCCCCCCC(=O)*; γGlu = O=C(O)[C@H](CCC(=O)[*:2])N[*:1]; 1Nal = N[C@@H](Cc1cccc2ccccc12)C(=O)O; Hyp = O=C(O)[C@@H]1C[C@@H](O)CN1; NMeF = CN[C@@H](Cc1ccccc1)C(=O)O; NMeD = CN[C@@H](CC(=O)O)C(=O)O; dNMeD = CN[C@H](CC(=O)O)C(=O)O; NH(2-Me-phenyl) = Cc1ccccc1N*; Nle = CCCC[C@H](N)C(=O)O; AEEA = NCCOCCOCC(=O)O; CO = O=C([*:1])[*:2] Where only a bound is given, the exact number is not on record here.

Consider `CCCC[C@H](NC(=O)[C@H](Cc1c[nH]c2ccccc12)NC(=O)CNC(=O)[C@H](CC(C)C)NC(=O)[C@H](Cc1ccc(OS(=O)(=O)O)cc1)NC(=O)[C@H](CC(=O)O)NC(=O)CCCCCCCCCCCCCCCCC(=O)O)C(=O)N(C)[C@H](CC(=O)O)C(=O)N(C)[C@@H](Cc1ccccc1)C(N)=O`, for which the IC50 in data set [1] is 0.107 nM. The half-life in data set [2] is 156 min.
Take `CCCC[C@H](NC(=O)[C@H](Cc1c[nH]c2ccccc12)NC(=O)[C@H](CCC(=O)O)NC(=O)[C@H](CCCC)NC(=O)[C@H](Cc1ccc(OS(=O)(=O)O)cc1)NC(=O)[C@H](CC(=O)O)NC(=O)COCCOCCNC(=O)COCCOCCNC(=O)CC[C@H](NC(=O)CCCCCCCCCCCCCCCCC(=O)O)C(=O)O)C(=O)N[C@@H](CC(=O)O)C(=O)N[C@@H](Cc1ccccc1)C(N)=O` ({C18 diacid-γGlu-AEEA-AEEA}-D[sY][Nle]EW[Nle]DF-NH2): the EC50 in data set [3] is 0.437 nM; in data set [4] it was greater than 1000 nM. In addition, the values for the IC50 in data set [1] and in data set [5] were 3980 nM and 0.151 nM, respectively.
On the same counts, the results for `CCCC[C@H](NC(=O)[C@H](Cc1ccc(OS(=O)(=O)O)cc1)NC(=O)[C@H](CC(=O)O)NC(=O)COCCOCCNC(=O)COCCOCCNC(=O)CC[C@H](NC(=O)CCCCCCCCCCCCCCCCC(=O)O)C(=O)O)C(=O)NCC(=O)N[C@@H](Cc1c[nH]c2ccccc12)C(=O)N[C@H](C(=O)N[C@@H](CC(=O)O)C(=O)N[C@@H](Cc1ccccc1)C(N)=O)[C@@H](C)CC` ({C18 diacid-γGlu-AEEA-AEEA}-D[sY][Nle]GWIDF-NH2) are 0.631 nM, 0.11 nM, 0.794 nM and 2.14 nM.
For `CCCC[C@H](NC(=O)[C@H](Cc1ccc(OS(=O)(=O)O)cc1)NC(=O)[C@H](CC(=O)O)NC(=O)COCCOCCNC(=O)COCCOCCNC(=O)CC[C@H](NC(=O)CCCCCCCCCCCCCCCCC(=O)O)C(=O)O)C(=O)NCC(=O)N[C@@H](Cc1c[nH]c2ccccc12)C(=O)N[C@@H](CCCCNC(=O)Nc1ccccc1C)C(=O)N(C)[C@@H](CC(=O)O)C(=O)N(C)[C@@H](Cc1ccccc1)C(N)=O` ({C18 diacid-γGlu-AEEA-AEEA}-D[sY][Nle]GWK([CO-NH(2-Me-phenyl)])[NMeD][NMeF]-NH2), in that order: greater than 1000 nM, 0.115 nM, 0.479 nM and greater than 10000 nM.
On to `CCCC[C@H](NC(=O)[C@H](Cc1ccc(OS(=O)(=O)O)cc1)NC(=O)[C@H](CC(=O)O)NC(=O)COCCOCCNC(=O)COCCOCCNC(=O)CC[C@H](NC(=O)CCCCCCCCCCCCCCCCC(=O)O)C(=O)O)C(=O)NCC(=O)N[C@@H](Cc1c[nH]c2ccccc12)C(=O)N[C@@H](CCC(N)=O)C(=O)N[C@@H](CC(=O)O)C(=O)N[C@@H](Cc1ccccc1)C(N)=O` ({C18 diacid-γGlu-AEEA-AEEA}-D[sY][Nle]GWQDF-NH2), for which the EC50 in data set [3] was 0.417 nM; in data set [4] it was 0.162 nM. The values for the IC50 in data set [1] and in data set [5] were 0.933 nM and 2.04 nM, respectively.
For `CCCC[C@H](NC(=O)[C@H](Cc1ccc(OS(=O)(=O)O)cc1)NC(=O)[C@H](CC(=O)O)NC(=O)COCCOCCNC(=O)COCCOCCNC(=O)CC[C@H](NC(=O)CCCCCCCCCCCCCCCCC(=O)O)C(=O)O)C(=O)NCC(=O)N[C@@H](Cc1c[nH]c2ccccc12)C(=O)N[C@@H](CCCC)C(=O)N[C@@H](CC(=O)O)C(=O)N[C@@H](Cc1c[nH]c2ccccc12)C(N)=O` ({C18 diacid-γGlu-AEEA-AEEA}-D[sY][Nle]GW[Nle]DW-NH2), the EC50 in data set [3] is 0.417 nM; in data set [4], 0.324 nM. The results for the half-inhibitory concentration (IC50) in data set [1] and in data set [5] were 2.24 nM and 0.132 nM, respectively.
As for `CCCC[C@H](NC(=O)[C@H](Cc1ccc(OS(=O)(=O)O)cc1)NC(=O)[C@H](CC(=O)O)NC(=O)COCCOCCNC(=O)COCCOCCNC(=O)CC[C@H](NC(=O)CCCCCCCCCCCCCCCCC(=O)O)C(=O)O)C(=O)NCC(=O)N[C@@H](Cc1c[nH]c2ccccc12)C(=O)N[C@@H](CCCC)C(=O)N[C@@H](CC(=O)O)C(=O)N[C@@H](Cc1ccc(O)cc1)C(N)=O` ({C18 diacid-γGlu-AEEA-AEEA}-D[sY][Nle]GW[Nle]DY-NH2), the results for the 50% effective concentration (EC50) in data set [3] and in data set [4] were 0.324 nM and 0.977 nM, respectively. For the same compound, the IC50 in data set [1] was 9.12 nM; in data set [5], 0.132 nM.
For `CCCC[C@H](NC(=O)[C@H](Cc1ccc(OS(=O)(=O)O)cc1)NC(=O)[C@H](CC(=O)O)NC(=O)COCCOCCNC(=O)COCCOCCNC(=O)CC[C@H](NC(=O)CCCCCCCCCCCCCCCCC(=O)O)C(=O)O)C(=O)NCC(=O)N[C@@H](Cc1c[nH]c2ccccc12)C(=O)N[C@@H](CCCC)C(=O)N[C@@H](CC(=O)O)C(=O)N[C@@H](Cc1cccc2ccccc12)C(N)=O` ({C18 diacid-γGlu-AEEA-AEEA}-D[sY][Nle]GW[Nle]D[1Nal]-NH2), in that order: 0.407 nM, 0.162 nM, 0.0759 nM and 0.0933 nM.
On the same counts, the results for `CCCC[C@H](NC(=O)[C@H](Cc1ccc(OS(=O)(=O)O)cc1)NC(=O)[C@H](CC(=O)O)NC(=O)COCCOCCNC(=O)COCCOCCNC(=O)CC[C@H](NC(=O)CCCCCCCCCCCCCCCCC(=O)O)C(=O)O)C(=O)NCC(=O)N[C@@H](Cc1c[nH]c2ccccc12)C(=O)N[C@@H](CCCC)C(=O)N[C@@H](CC(N)=O)C(=O)N[C@@H](Cc1ccccc1)C(N)=O` ({C18 diacid-γGlu-AEEA-AEEA}-D[sY][Nle]GW[Nle]NF-NH2) are 5.75 nM, 11.7 nM, 19.1 nM and 309 nM.
For `CCCC[C@H](NC(=O)[C@H](Cc1ccc(OS(=O)(=O)O)cc1)NC(=O)[C@H](CC(=O)O)NC(=O)COCCOCCNC(=O)COCCOCCNC(=O)CC[C@H](NC(=O)CCCCCCCCCCCCCCCCC(=O)O)C(=O)O)C(=O)NCC(=O)N[C@@H](Cc1c[nH]c2ccccc12)C(=O)N[C@@H](CCCC)C(=O)N1C[C@H](O)C[C@H]1C(=O)N[C@@H](Cc1ccccc1)C(N)=O` ({C18 diacid-γGlu-AEEA-AEEA}-D[sY][Nle]GW[Nle][Hyp]F-NH2), the EC50 in data set [3] is 25.7 nM; in data set [4], 1.12 nM. Also, the 50% inhibitory concentration (IC50) is 3.02 nM in data set [1] and 457 nM in data set [5].
For `CCCC[C@H](NC(=O)[C@H](Cc1ccc(OS(=O)(=O)O)cc1)NC(=O)[C@H](CC(=O)O)NC(=O)COCCOCCNC(=O)COCCOCCNC(=O)CC[C@H](NC(=O)CCCCCCCCCCCCCCCCC(=O)O)C(=O)O)C(=O)NCC(=O)N[C@@H](Cc1c[nH]c2ccccc12)C(=O)N[C@@H](CCCC)C(=O)N(C)[C@@H](CC(=O)O)C(=O)N[C@@H](Cc1cccc2ccccc12)C(N)=O` ({C18 diacid-γGlu-AEEA-AEEA}-D[sY][Nle]GW[Nle][NMeD][1Nal]-NH2), in that order: 1.86 nM, 0.501 nM, 0.0794 nM and 115 nM.
For `CCCC[C@H](NC(=O)[C@H](Cc1c[nH]c2ccccc12)NC(=O)[C@H](CCCCN)NC(=O)[C@H](CCCC)NC(=O)[C@H](Cc1ccc(OS(=O)(=O)O)cc1)NC(=O)[C@H](CC(=O)O)NC(=O)COCCOCCNC(=O)COCCOCCNC(=O)CC[C@H](NC(=O)CCCCCCCCCCCCCCCCC(=O)O)C(=O)O)C(=O)N[C@@H](CC(=O)O)C(=O)N[C@@H](Cc1ccccc1)C(N)=O` ({C18 diacid-γGlu-AEEA-AEEA}-D[sY][Nle]KW[Nle]DF-NH2), in that order: 0.832 nM, 912 nM, 2570 nM and 13.5 nM.
On to `CCCC[C@H](NC(=O)[C@H](Cc1c[nH]c2ccccc12)NC(=O)[C@@H]1CCCN1C(=O)[C@H](CCCC)NC(=O)[C@H](Cc1ccc(OS(=O)(=O)O)cc1)NC(=O)[C@H](CC(=O)O)NC(=O)COCCOCCNC(=O)COCCOCCNC(=O)CC[C@H](NC(=O)CCCCCCCCCCCCCCCCC(=O)O)C(=O)O)C(=O)N[C@@H](CC(=O)O)C(=O)N[C@@H](Cc1ccccc1)C(N)=O` ({C18 diacid-γGlu-AEEA-AEEA}-D[sY][Nle]PW[Nle]DF-NH2), for which the concentration giving a half-maximal response (EC50) in data set [3] is 0.38 nM; in data set [4], 603 nM. In addition, the concentration for half-maximal inhibition (IC50) was 933 nM in data set [1] and 0.589 nM in data set [5].
On the same counts, the results for `CCCC[C@H](NC(=O)Cc1ccc(OS(=O)(=O)O)cc1)C(=O)NCC(=O)N[C@@H](Cc1c[nH]c2ccccc12)C(=O)N[C@@H](CCCC)C(=O)N(C)[C@H](CC(=O)O)C(=O)N[C@@H](Cc1ccccc1)C(N)=O` ({Phenylacetyl(4-OSO3H)}-[Nle]GW[Nle][dNMeD]F-NH2) are greater than 1000 nM, 0.0251 nM, 0.0447 nM and 7410 nM.
